Test [1] has as its target BRG-1 (Homo sapiens, UniProt P51532). Description: ATPase catalytic activity assay of BRG-1 (ADP-Glo). The format is biochemical. Conditions: ATPase catalytic activity, ADP-Glo; for IC50: read-out: BRG1 IC50 (μM)*; for Emax: read-out: BRG1 Max % Inhibition. Summed up:
(§1)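 ADP formed by the ATPase reaction was quantified by ADP-Glo luminescence. After the reaction, unconsumed ATP was depleted (40 min, room temperature), then ADP was converted to ATP for luciferase detection (60 min, room temperature) before reading on a luminometer.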

Test [2] has as its target BRM (Homo sapiens, UniProt P51531). Description: ATPase catalytic activity assay of BRM (ADP-Glo). Particulars: for IC50: read-out: BRM IC50 (μM)*. It is filed as biochemical. Summed up: as §1

The values below come from patent US12685735B2 (Foghorn Therapeutics Inc., priority 2020, dated 2026).

BRG-1, sequence (P51532 whole entry): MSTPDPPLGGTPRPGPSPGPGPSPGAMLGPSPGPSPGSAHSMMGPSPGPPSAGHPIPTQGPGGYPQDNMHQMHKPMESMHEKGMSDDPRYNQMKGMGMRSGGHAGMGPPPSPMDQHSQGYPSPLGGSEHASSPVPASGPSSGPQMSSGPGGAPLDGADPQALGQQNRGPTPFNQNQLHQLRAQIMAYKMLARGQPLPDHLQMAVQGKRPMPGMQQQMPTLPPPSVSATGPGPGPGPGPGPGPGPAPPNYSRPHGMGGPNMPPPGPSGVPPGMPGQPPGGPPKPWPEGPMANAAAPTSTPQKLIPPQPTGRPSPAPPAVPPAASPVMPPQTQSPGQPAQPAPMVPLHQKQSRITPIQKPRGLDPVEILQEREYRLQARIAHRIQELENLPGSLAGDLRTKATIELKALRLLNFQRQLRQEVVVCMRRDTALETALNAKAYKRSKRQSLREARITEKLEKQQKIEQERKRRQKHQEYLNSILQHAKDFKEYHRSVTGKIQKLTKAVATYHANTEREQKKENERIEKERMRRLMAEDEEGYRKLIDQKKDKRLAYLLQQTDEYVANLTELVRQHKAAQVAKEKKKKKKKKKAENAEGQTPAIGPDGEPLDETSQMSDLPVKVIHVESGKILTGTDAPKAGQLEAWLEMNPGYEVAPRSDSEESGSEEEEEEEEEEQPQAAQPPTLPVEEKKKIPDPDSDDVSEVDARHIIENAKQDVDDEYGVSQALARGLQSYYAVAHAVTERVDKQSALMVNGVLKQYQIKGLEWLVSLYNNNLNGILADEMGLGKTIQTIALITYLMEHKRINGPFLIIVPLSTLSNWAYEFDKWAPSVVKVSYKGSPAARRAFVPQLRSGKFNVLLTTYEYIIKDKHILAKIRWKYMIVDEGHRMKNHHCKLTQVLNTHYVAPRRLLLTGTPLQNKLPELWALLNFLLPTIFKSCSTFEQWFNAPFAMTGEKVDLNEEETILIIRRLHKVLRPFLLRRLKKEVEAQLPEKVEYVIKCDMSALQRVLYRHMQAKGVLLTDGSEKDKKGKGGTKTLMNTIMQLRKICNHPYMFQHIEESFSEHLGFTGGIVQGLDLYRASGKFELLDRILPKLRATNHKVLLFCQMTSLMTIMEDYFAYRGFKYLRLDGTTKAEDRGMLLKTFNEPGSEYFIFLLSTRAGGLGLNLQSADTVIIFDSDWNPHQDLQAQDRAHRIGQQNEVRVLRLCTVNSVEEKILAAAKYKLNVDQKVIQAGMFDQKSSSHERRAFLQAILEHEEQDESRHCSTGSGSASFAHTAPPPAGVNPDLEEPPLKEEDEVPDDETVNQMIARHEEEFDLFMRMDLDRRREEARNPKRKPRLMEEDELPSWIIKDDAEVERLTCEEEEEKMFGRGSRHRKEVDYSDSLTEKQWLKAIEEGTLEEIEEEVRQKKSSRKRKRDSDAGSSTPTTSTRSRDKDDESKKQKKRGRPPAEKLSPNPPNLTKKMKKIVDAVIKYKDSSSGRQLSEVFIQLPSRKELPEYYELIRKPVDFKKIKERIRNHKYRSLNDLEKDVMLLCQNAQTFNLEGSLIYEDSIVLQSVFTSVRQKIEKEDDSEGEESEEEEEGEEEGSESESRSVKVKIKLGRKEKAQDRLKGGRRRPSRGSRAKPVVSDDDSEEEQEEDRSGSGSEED
BRM, sequence (P51531 whole entry): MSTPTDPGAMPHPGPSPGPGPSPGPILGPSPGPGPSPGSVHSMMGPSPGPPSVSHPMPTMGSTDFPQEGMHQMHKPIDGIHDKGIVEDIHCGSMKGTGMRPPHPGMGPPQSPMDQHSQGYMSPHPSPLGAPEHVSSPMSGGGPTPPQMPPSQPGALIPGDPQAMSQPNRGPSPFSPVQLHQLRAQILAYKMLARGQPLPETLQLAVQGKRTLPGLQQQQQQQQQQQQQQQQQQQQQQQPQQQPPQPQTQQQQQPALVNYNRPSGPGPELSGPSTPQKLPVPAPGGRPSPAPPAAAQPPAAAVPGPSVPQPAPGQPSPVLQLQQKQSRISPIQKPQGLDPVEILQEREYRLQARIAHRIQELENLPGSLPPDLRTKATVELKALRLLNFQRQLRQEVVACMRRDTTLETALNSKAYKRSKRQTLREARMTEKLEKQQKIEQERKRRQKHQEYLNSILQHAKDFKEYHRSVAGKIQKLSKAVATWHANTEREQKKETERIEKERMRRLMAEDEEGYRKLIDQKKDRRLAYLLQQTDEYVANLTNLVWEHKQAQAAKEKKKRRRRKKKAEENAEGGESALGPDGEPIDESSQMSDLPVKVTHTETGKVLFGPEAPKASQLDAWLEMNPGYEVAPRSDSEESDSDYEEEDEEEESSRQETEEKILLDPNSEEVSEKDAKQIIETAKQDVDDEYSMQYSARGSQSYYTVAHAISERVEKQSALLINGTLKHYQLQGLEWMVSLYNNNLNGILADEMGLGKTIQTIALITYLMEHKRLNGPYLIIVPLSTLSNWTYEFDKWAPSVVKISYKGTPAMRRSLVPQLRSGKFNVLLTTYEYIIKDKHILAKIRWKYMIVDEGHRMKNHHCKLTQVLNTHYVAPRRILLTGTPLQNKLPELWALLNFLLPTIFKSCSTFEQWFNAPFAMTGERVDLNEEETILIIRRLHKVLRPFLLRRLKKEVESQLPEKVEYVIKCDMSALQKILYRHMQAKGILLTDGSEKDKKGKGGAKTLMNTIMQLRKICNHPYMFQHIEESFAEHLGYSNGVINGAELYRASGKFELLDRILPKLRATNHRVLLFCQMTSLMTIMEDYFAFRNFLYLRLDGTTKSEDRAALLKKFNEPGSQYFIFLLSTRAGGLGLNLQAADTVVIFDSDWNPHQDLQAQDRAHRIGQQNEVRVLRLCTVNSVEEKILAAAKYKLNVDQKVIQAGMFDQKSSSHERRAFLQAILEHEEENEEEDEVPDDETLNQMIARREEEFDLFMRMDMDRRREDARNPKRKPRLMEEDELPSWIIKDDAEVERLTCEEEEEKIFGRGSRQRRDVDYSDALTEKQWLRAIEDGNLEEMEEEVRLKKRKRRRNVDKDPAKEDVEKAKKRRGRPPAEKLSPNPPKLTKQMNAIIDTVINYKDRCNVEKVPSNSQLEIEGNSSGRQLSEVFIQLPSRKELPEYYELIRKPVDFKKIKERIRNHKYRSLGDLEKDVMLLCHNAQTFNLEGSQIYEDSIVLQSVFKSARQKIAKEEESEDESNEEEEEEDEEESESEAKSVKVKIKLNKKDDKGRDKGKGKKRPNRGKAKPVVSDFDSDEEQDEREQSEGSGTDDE

For `C[C@@H]1CN(c2cccc(-c3csc(NC(=O)CNC(=O)c4cnc5c(c4)[C@](C)(CO)CC5)n3)c2)C[C@H](C)O1` [Compound 143, (R)-N-(2-((4-(3-((cis)-2,6-dimethylmorpholino)phenyl)thiazol-2-yl)amino)-2-oxoethyl)-5-(hydroxymethyl)-5-methyl-6,7-dihydro-5H-cyclopenta[b]pyridine-3-carboxamide], in test [1], the half-inhibitory concentration (IC50) was greater than 5 µM and the Emax is greater than 60%. Also, in test [2], the “BRM Max % Inhibition” value is greater than 80% and the IC50 was 0.1 to 1 µM.
As for `C[C@@H]1CN(c2cccc(-c3csc(NC(=O)CNC(=O)c4cnc5c(c4)[C@@](C)(CO)CC5)n3)c2)C[C@H](C)O1` [Compound 144, (S)-N-(2-((4-(3-((cis)-2,6-dimethylmorpholino)phenyl)thiazol-2-yl)amino)-2-oxoethyl)-5-(hydroxymethyl)-5-methyl-6,7-dihydro-5H-cyclopenta[b]pyridine-3-carboxamide], in test [1], the half-inhibitory concentration (IC50) was in the range of 0.1 to 1 µM and the Emax is greater than 80%. Further, in test [2], the “BRM Max % Inhibition” value is greater than 95% and the half-maximal inhibitory concentration (IC50) is 0.1 to 1 µM.
With `C[C@@H]1CN(c2cccc(-c3csc(NC(=O)CNC(=O)c4cc(C(C)(C)CO)ccc4F)n3)n2)C[C@H](C)O1` [Compound 145, N-[2-[[4-[6-[(cis)-2,6-dimethylmorpholin-4-yl]-2-pyridyl]thiazol-2-yl]amino]-2-oxo-ethyl]-2-fluoro-5-(2-hydroxy-1,1-dimethyl-ethyl)benzamide], in test [1], the IC50 lay in the range of 1 to 5 µM and the Emax was greater than 60%. For the same molecule, in test [2], the “BRM Max % Inhibition” value was greater than 90% and the IC50 lay in the range of 0.1 to 1 µM.
For `C[C@@H]1CN(c2cccc(-c3csc(NC(=O)CNC(=O)c4cccc5c4OCC[C@@]5(C)C#N)n3)c2)C[C@H](C)O1` [Compound 146, (R)-4-cyano-N-(2-((4-(3-((cis)-2,6-dimethylmorpholino)phenyl)thiazol-2-yl)amino)-2-oxoethyl)-4-methylchroman-8-carboxamide], in that order: greater than 5 µM, greater than 30%, greater than 70% and 0.1 to 1 µM.
For `Cn1ccc2ccc(-c3csc(NC(=O)CNC(=O)c4cccc(C5(C#N)CCC5)c4)n3)cc2c1=O` [Compound 147, 3-(1-cyanocyclobutyl)-N-(2-((4-(2-methyl-1-oxo-1,2-dihydroisoquinolin-7-yl)thiazol-2-yl)amino)-2-oxoethyl)benzamide], in that order: 1 to 5 µM, greater than 80%, greater than 90% and 0.1 to 1 µM.
The like results for `C[C@@H]1CN(c2cccc(-c3csc(NC(=O)CNC(=O)c4cccc5c4OCC[C@]5(C)C#N)n3)c2)C[C@H](C)O1` [Compound 148, (S)-4-cyano-N-(2-((4-(3-((cis)-2,6-dimethylmorpholino)phenyl)thiazol-2-yl)amino)-2-oxoethyl)-4-methylchroman-8-carboxamide] were, in that order, greater than 5 µM, greater than 30%, greater than 70% and 0.1 to 1 µM.
Consider `C[C@@H]1CN(c2cccc(-c3csc(NC(=O)CNC(=O)c4cccc(C5(CF)COC5)c4)n3)c2)C[C@H](C)O1` [Compound 149, N-(2-((4-(3-((cis)-2,6-dimethylmorpholino)phenyl)thiazol-2-yl)amino)-2-oxoethyl)-3-(3-(fluoromethyl)oxetan-3-yl)benzamide], for which, in test [1], the IC50 fell in the range of 1 to 5 µM and the Emax is greater than 70%. Besides, in test [2], the “BRM Max % Inhibition” value is recorded as greater than 95% and the half-inhibitory concentration (IC50) was in the range of 0.1 to 1 µM.
In the case of `C[C@@H]1CN(c2cccc(-c3csc(NC(=O)CNC(=O)c4cccc([C@]5(F)C[C@H](O)C5)c4)n3)c2)C[C@H](C)O1` [Compound 150, N-(2-((4-(3-((cis)-2,6-dimethylmorpholino)phenyl)thiazol-2-yl)amino)-2-oxoethyl)-3-((1r,3r)-1-fluoro-3-hydroxycyclobutyl)benzamide], in test [1], the IC50 was 0.1 to 1 µM and the Emax is greater than 90%. In test [2], the “BRM Max % Inhibition” value is greater than 95% and the 50% inhibitory concentration (IC50) was less than 0.1 µM.
Regarding `C[C@@H]1CN(c2cccc(-c3csc(NC(=O)CNC(=O)c4cccc([C@]5(F)C[C@@H](O)C5)c4)n3)c2)C[C@H](C)O1` [Compound 151, N-(2-((4-(3-((cis)-2,6-dimethylmorpholino)phenyl)thiazol-2-yl)amino)-2-oxoethyl)-3-((1s,3s)-1-fluoro-3-hydroxycyclobutyl)benzamide], in test [1], the IC50 was in the range of 0.1 to 1 µM and the Emax is greater than 95%. Moreover, in test [2], the “BRM Max % Inhibition” value is listed as greater than 95% and the IC50 was less than 0.1 µM.
For `C[C@@H]1CN(c2cccc(-c3csc(NC(=O)CNC(=O)c4ccc5c(c4)[C@](C)(C#N)CC5)n3)n2)C[C@H](C)O1` [Compound 152, (R)-3-cyano-N-(2-((4-(6-((cis)-2,6-dimethylmorpholino)pyridin-2-yl)thiazol-2-yl)amino)-2-oxoethyl)-3-methyl-2,3-dihydro-1H-indene-5-carboxamide], in that order: less than 0.1 µM, greater than 95%, greater than 95% and less than 0.1 µM.
For `C[C@@H]1CN(c2cccc(-c3csc(NC(=O)CNC(=O)c4ccc5c(c4)[C@](C)(C#N)CCO5)n3)n2)C[C@H](C)O1` [Compound 153, (R)-4-cyano-N-(2-((4-(6-((cis)-2,6-dimethylmorpholino)pyridin-2-yl)thiazol-2-yl)amino)-2-oxoethyl)-4-methylchroman-6-carboxamide], in that order: less than 0.1 µM, greater than 95%, greater than 95% and less than 0.1 µM.
For `Cn1ncc(-c2cccc(-c3csc(NC(=O)CNC(=O)c4cccc(C(C)(C)CO)c4)n3)n2)n1` [Compound 154, 3-(1-hydroxy-2-methylpropan-2-yl)-N-(2-((4-(6-(2-methyl-2H-1,2,3-triazol-4-yl)pyridin-2-yl)thiazol-2-yl)amino)-2-oxoethyl)benzamide], in that order: 1 to 5 µM, greater than 60%, greater than 90% and 0.1 to 1 µM.
Take `Cn1ncc(-c2cccc(-c3csc(NC(=O)CNC(=O)c4ccc5c(c4)C(C)(CO)CC5)n3)n2)n1` (stereo not shown) [Compound 155, 3-(hydroxymethyl)-3-methyl-N-(2-((4-(6-(2-methyl-2H-1,2,3-triazol-4-yl)pyridin-2-yl)thiazol-2-yl)amino)-2-oxoethyl)-2,3-dihydro-1H-indene-5-carboxamide]: in test [1], the half-maximal inhibitory concentration (IC50) was in the range of 1 to 5 µM and the Emax was greater than 60%. Besides, in test [2], the “BRM Max % Inhibition” value is greater than 90% and the IC50 was 0.1 to 1 µM.
For `C[C@@H]1CN(c2cccc(-c3csc(NC(=O)CNC(=O)c4cccc([C@H]5COC[C@@H]5O)c4)n3)c2)C[C@H](C)O1` [Compound 156, N-(2-((4-(3-((cis)-2,6-dimethylmorpholino)phenyl)thiazol-2-yl)amino)-2-oxoethyl)-3-((3S,4R)-4-hydroxytetrahydrofuran-3-yl)benzamide], in that order: greater than 5 µM, greater than 30%, greater than 80% and 0.1 to 1 µM.
For `C[C@@H]1CN(c2cccc(-c3csc(NC(=O)CNC(=O)c4cccc([C@@H]5COC[C@H]5O)c4)n3)c2)C[C@H](C)O1` [Compound 157, N-(2-((4-(3-((cis)-2,6-dimethylmorpholino)phenyl)thiazol-2-yl)amino)-2-oxoethyl)-3-((3R,4S)-4-hydroxytetrahydrofuran-3-yl)benzamide], in that order: greater than 5 µM, greater than 30%, greater than 70% and 0.1 to 1 µM.
The like results for `C[C@@H]1CN(c2cccc(-c3csc(NC(=O)CNC(=O)c4ccc5c(c4)[C@](C#N)(CO)CC5)n3)n2)C[C@H](C)O1` [Compound 159, (R)-3-cyano-N-(2-((4-(6-((cis)-2,6-dimethylmorpholino)pyridin-2-yl)thiazol-2-yl)amino)-2-oxoethyl)-3-(hydroxymethyl)-2,3-dihydro-1H-indene-5-carboxamide] were, in that order, less than 0.1 µM, greater than 95%, greater than 95% and less than 0.1 µM.
For `C[C@@H]1CN(c2cccc(-c3csc(NC(=O)CNC(=O)c4cccc([C@@H]5COC[C@H]5O)c4)n3)n2)C[C@H](C)O1` [Compound 160, N-(2-((4-(6-((cis)-2,6-dimethylmorpholino)pyridin-2-yl)thiazol-2-yl)amino)-2-oxoethyl)-3-((3R,4S)-4-hydroxytetrahydrofuran-3-yl)benzamide], in test [1], the IC50 was greater than 5 µM and the Emax is less than 30%. Also, in test [2], the “BRM Max % Inhibition” value was greater than 80% and the 50% inhibitory concentration (IC50) is 0.1 to 1 µM.
For `C[C@@H]1CN(c2cccc(-c3csc(NC(=O)CNC(=O)c4ccc5c(c4)[C@@H](CO)CC5)n3)n2)C[C@H](C)O1` [Compound 161, (3S)-N-[2-[[4-[6-[(cis)-2,6-dimethylmorpholin-4-yl]-2-pyridyl]thiazol-2-yl]amino]-2-oxo-ethyl]-3-(hydroxymethyl)indane-5-carboxamide], in that order: 0.1 to 1 µM, greater than 80%, greater than 95% and less than 0.1 µM.
For the molecule `C[C@@H]1CN(c2cccc(-c3csc(NC(=O)CNC(=O)c4ccc5c(c4)[C@H](CO)CC5)n3)n2)C[C@H](C)O1` [Compound 162, (3R)-N-[2-[[4-[6-[(cis)-2,6-dimethylmorpholin-4-yl]-2-pyridyl]thiazol-2-yl]amino]-2-oxo-ethyl]-3-(hydroxymethyl)indane-5-carboxamide], in test [1], the concentration for half-maximal inhibition (IC50) is greater than 5 µM and the Emax was greater than 40%. Moreover, in test [2], the “BRM Max % Inhibition” value is greater than 70% and the concentration for half-maximal inhibition (IC50) was 0.1 to 1 µM.
